In patent US7763287B2, “Extract of Cercis chinensis having anti-oxidant activity and anti-aging activity, and cosmetical composition containing the extract for anti-oxidation, skin-aging protection and wrinkle improvement” (Hankook Pharm. Co., Inc., priority 2002, dated 2010):

Key:
[1] = tested on: rat brain homogenates; assay: Lipid peroxidation inhibitory activity (Fe2+/ascorbic acid, TBA method); conditions: Table 4
[2] = tested on: HEK-N/F cells; assay: Protection of cells from oxidative damage induced by t-butylhydroperoxide; type: cell-based, human; conditions: 1.5 mM t-butylhydroperoxide 3 hours; for TBARS (pmol/mg protein): compound 50.0 µg/ml
Method: t-butylhydroperoxide is metabolized into a free radical intermediate as it comes in a cell, so that it causes lipid peroxidation, resulting in cell damage. This phenomenon is similar to that caused by oxidataive stress accumulated in cells and tissues. […] HEK-N/F, an epidermal cell line of a newborn baby, was treated with 1.5 mM of t-butylhydroxyperoxide for 3 hours.

[3] = Superoxide radical scavenging activity (xanthine/xanthine oxidase, NBT); type: biochemical; conditions: Table 6
Method: Superoxide radical (O^2−) itself has a little reactivity, but is easily changed into H2O2 that generates hydroxyl radical having strong reactivity or is reacted with nitric oxide (NO.) to generate peroxy nitrite (ONOO^−) having strong reactivity, too. Thus, it might be a reason for oxidation of SH-group, nitration of protein tyrosine, lipid peroxidation and DNA damage. […] Basically, measurement of superoxide radical scavenging activity was performed by investigating the activity of superoxide dismutase (SOD), an enzyme scavenging superoxide by dismutation of the same. In the present invention, an activity of a sample to inhibit superoxide production by the enzyme reaction of xanthine/xanthine oxidase and its another activity to inhibit reaction (NBT+20^2−→NBTH2+2O2) generating formazan by reduction of nitro blue tetrazolium (referred as ‘NBT’ hereinafter) were measured. Particularly, wells of a 96-well plate were supplemented with 50 μl of 4 mM xanthine (Sigma), 50 μl of […] NBT (Sigma), 50 μl of 50 mM phosphate buffer (pH 7.8, 1 mM EDTA) and 10 μl of each sample, into which 40 μl of xanthine oxidase was added to induce a reaction. After the reaction was completed, each reaction solution was collected as scheduled, and OD550 was measured with an ELISA reader. […] Superoxide Radical Scavenging Activity (%)=(Acontrol−Asample)/(Acontrol−Ablank)×100 <Mathematical Formula 4> […]

[4] = DPPH radical scavenging activity; type: biochemical; conditions: Table 3
Method: In order to extract an effective ingredient having an anti-oxidant activity from Cercis chinensis, an experiment was performed following the procedure represented in a schematic diagram of FIG. 1. Particularly, 1 kg of leaves and stems of Cercis chinensis, dried in shadow, were grinded to powder using a pulverizer, which was extracted by ethanol (EtOH) at room temperature twice at intervals of two weeks. For the extraction, ethanol solutions were prepared by adding ethanol gradually, 10% at a time, from 0% to 100%. The prepared ethanol solutions were used for the extraction. […] But, it looses absorbance when being scavenged. Based on that point, an anti-oxidant activity can be measured using DPPH. […] Then, each solution was distributed into a 96 well plate by 10 μl each, into which 190 μl of DPPH(Sigma, St. Louis, Mo, USA) solution whose ethanol concentration was 2×10^−4 M/ml was added. The plate was just left at room temperature for 30 minutes. Finally, OD517 was measured at 517 nm. For a control, DMSO was added instead of the sample, and changes of optical density were investigated. […] DDPH Radical Scavenging Activity (%)=(Acontrol−Asample)/(Acontrol)×100 <Mathematica Formula 1>
Acontrol: Optical density of control group (sample was not added),
Asample: Optical density of experimental group (sample was added).
In order to identify a fraction having an anti oxidant activity among hexane Fr, EtOAc Fr and BuOH Fr obtained above, a DPPH radical scavenging activity was measured using each extract of each fraction following the method used above. At this time, vitamin E, known to have high DPPH radical scavenging activity, was used as a comparing group.
At this time, BHA (tert-butyl-4 hydroxyanisole) and α-tocopherol, synthetic anti-oxidant agents, were used as positive controls.

[5] = Hydroxyl radical scavenging activity (deoxyribose/TBA, method of Halliwell); type: biochemical; conditions: for Hydroxyl radical scavenging activity (%): 10 μg of sample, total volume 1 ml
Method: Hydroxyl radical (HO.) is generated by the reaction of a metal ion or a superoxide radical. Owing to its strong reactivity, hydroxyl radical causes oxidative damages to DNA, protein and lipid in vivo. Nitric oxide (NO.) is reacted with a superoxide radical to generate a peroxy nitrite (ONOO—), also having strong reactivity. […] Particularly, each compound was mixed with 10 μg of a sample dissolved in DMSO, phosphate buffer (20 mM, pH 7.4) 5.6 mM deoxyribose, 0.1 mM FeCl3, 1 mM H2O2 and 0.1 mM ascorbic acid, making total volume 1 ml, which was then reacted at 37° C. for 60 minutes. 250 μl of 20% TCA and 250 μl of 1% TBA solution (dissolved in 50 mM NaOH) were added to the reaction solution, followed by thermal reaction at 95° C. for 5 minutes. After completing the reaction, OD532 was measured. Hydroxyl radical scavenging activity was calculated by the below
<Mathematical Formula 3>. BHA and α-tocopherol were used for a positive control. Hydroxyl Radical Scavenging Activity (%)=(Acontrol−Asample)/(Acontrol−Ablank)×100 <Mathematical Formula 3>
Acontrol: Optical density of control group well (sample was not added),
Asample: Optical density of experimental group well (sample was added),
Ablank: Optical density of well not added with sample, TCA and TBA

[6] = Nitric oxide scavenging activity; type: biochemical; set-up: Nitric oxide scavenging activity (%): concentration or dose not given beside the values
[7] = tested on: back skin of SKH-1 hairless mouse; assay: Protection of skin tissues from UVB irradiation in hairless mice; type: in vivo
Method: 5-6 week old female hairless mice (SKH-hr 1) were raised for 14 days at 24±2° C. with 50±10% relative humidity and 12 hour day/night cycle. 30-60 minutes before the experiment, a sample was hyperdermically injected on 5 spots of the mice and the backs of the mice were irradiated by UVB. 5 mice per each group were put in a cage (20×15×5 cm) and UVB irradiation was performed using a UV lamp (HP-15M, 280-400 nm, max. 312 nm; Atto Co., Japan) at 15 cm distance by 15 kJ/m^2. After the completion of UV irradiation for 24 hours, back skin was cut and stored at −70° C. until peroxidation was measured.
UVB irradiation causes serious lipid peroxidation in skin tissues, so measurement of the peroxided lipid content might lead to the measurement of skin damages. Particularly, UVB was irradiated on the back skin of SKH-1 hairless mouse. 48 hours later, the back skin tissues were cut to measure lipid peroxidation by thiobarbituric acid (TBA) method. The back skin of the mouse was put in a 10×50 mM K-P buffer solution for homogenation.
Hydrogen peroxidation was also investigated. The frozen back skin section was put in 0.1 M Tris-HCl buffer solution (pH 7.5) containing 1 mg/ml of glucose and 1 mg/ml diaminobenzidine (DAB), which was cultured at 37° C. for 5-6 hours. After being washed with distilled water, the solution was stained with 2% methyl green for 60 minutes. Nucleus stained blue and DAB peroxidase (brown) were observed under a microscope.

Molecule	Lipid Peroxidation Inhibitory Activity IC50 [1] [µg/mL]	Cell survival rate (%) [2] [%]	TBARS (pmol/mg protein) [2] [pmol/mg protein]	Superoxide radical scavenging activity IC50 [3] [µg/mL]	DPPH radical scavenging activity IC50 [4] [µg/mL]	Hydroxyl radical scavenging activity (%) [5] [%]	Nitric oxide scavenging activity (%) [6] [%]	TBARS (nmol/mg protein) ([7]; treating amount 30 mg/kg + UVB irradiation)	TBARS (nmol/mg protein) ([7]; treating amount 50 mg/kg + UVB irradiation)	Hydroxyl radical scavenging activity (in words) [5]	Nitric oxide scavenging activity (in words) [6]
COc1cc(C2c3c(cc(OC)c(O)c3OC)CC(CO)C2CO[C@@H]2OC[C@@H](O)[C@H](O)[C@H]2O)cc(OC)c1O (single isomer, unassigned; (-)) [Chemical Formula 19, (−)-lyoniresinol 3a-O-β-D-xylopyranoside]	37.42 ± 2.06	13.5 ± 2.0	5981.1 ± 412.6	>100	45.7 ± 4.0	7.3	0.8 ± 0.6	–	–	–	–
O=C1O[C@H]([C@@H](O)CO)C([O-])=C1OP(=O)([O-])[O-].O=C1O[C@H]([C@@H](O)CO)C([O-])=C1OP(=O)([O-])[O-].[Mg+2].[Mg+2].[Mg+2] [MAP, magnesium-L-ascorbyl-2-phosphate, reference compound]	–	–	–	–	–	–	–	0.28 ± 0.06	0.16 ± 0.05	–	–
COc1cc(C2c3c(cc(OC)c(O)c3OC)CC(CO)C2CO[C@@H]2O[C@H](CO)[C@@H](O)[C@H](O)[C@H]2O)cc(OC)c1O (single isomer, unassigned; (+)) [Chemical Formula 20, (+)-lyoniresiol 3a-O-β-D-glucopyranoside]	39.10 ± 3.11	12.9 ± 2.1	7635.7 ± 631.2	>100	42.6 ± 3.1	8.1	0.8 ± 0.8	–	–	–	–
COC(=O)c1cc(O)c(O)c(O)c1 [Chemical Formula 7, methyl gallate]	7.05 ± 0.87	43.0±5.6	1024.4 ± 91.9	16.5 ± 1.4	5.3 ± 0.3	43.8	32.6 ± 2.8	–	–	remarkably higher hydroxyl radical scavenging activities	–
(−)-epigallocatechin-3-O-gallate [Chemical Formula 18]	1.00 ± 0.08	46.6 ± 5.9	1032.6 ± 103.5	24.0 ± 3.5	6.7 ± 0.4	54.0	26.2 ± 0.9	–	–	remarkably higher hydroxyl radical scavenging activities	comparatively high nitric oxide scavenging activity
